{"source": "paper PMC9029050", "about": "“The Effectiveness of Isoplumbagin and Plumbagin in Regulating Amplitude, Gating Kinetics, and Voltage-Dependent Hysteresis of erg-mediated K^+ Currents” (Biomedicines, 2022)", "test_system": "T1, erg-mediated K+ channel (Kerg, KV11)", "T1 construct": "gene Kcnh2; native channel in GH3 pituitary tumor cells", "assay": "whole-cell patch clamp of native IK(erg) in GH3 cells", "assay_type": "cell-based"}
{"smiles": "CC1=CC(=O)c2cccc(O)c2C1=O", "note": "[isoPLB, 8-hydroxy-2-methylnaphthalene-1,4-dione]", "values": [{"measurement": "IC50", "value": 2400, "unit": "nM"}]}
